Assay results taken from US12409172B2, “Dosage regimen” (UNION therapeutics A/S, priority 2023, dated 2025).

Assays:
[1] = tested on: PDE4B and PDE4D subtype splice variants; conditions: in vitro; cited from earlier work
[2] = tested on: adults with moderate to severe atopic dermatitis; test: Phase 2b study in atopic dermatitis (Example 8): treatment emergent adverse events; type: in vivo, human
Text: The exploratory objectives are to: • Evaluate pharmacokinetic (PK) and pharmacodynamic parameters relevant to AD • Evaluate the effect of orismilast on the pulmonary status and course of the disease in patients with asthma Primary Endpoint • Percentage change in Eczema Area and Severity Index (EASI) score from Baseline at Week 16. […]

O=C(Cc1c(Cl)c[n+]([O-])cc1Cl)c1ccc(OC(F)F)c2c1OC1(CCS(=O)(=O)CC1)O2 [orismilast, 2-(3,5-dichloro-1-oxidopyridin-1-ium-4-yl)-1-[7-(difluoromethoxy)-1′,1′-dioxospiro[1,3-benzodioxole-2,4′-thiane]-4-yl]ethanone]
inhibition of PDE4B and PDE4D subtype splice variants [1]: potent inhibitor | patients experiencing any Treatment Emergent Adverse Event (TEAE) through Week 16 ([2]; 20 mg BID): 76% | patients experiencing any Treatment Emergent Adverse Event (TEAE) through Week 16 ([2]; 30 mg BID): 79% | patients experiencing any Treatment Emergent Adverse Event (TEAE) through Week 16 ([2]; 40 mg BID): 86%
